Data set [1] relates to Imiquimod (IMQ)-induced psoriasis mouse model. As to the kind of experiment: Imiquimod (IMQ)-induced psoriasis mouse model. The settings on record: 15 mg/kg PO BID. The class given is in vivo, BALB/c female mice. On the procedure:
A comparative study was performed to evaluate the efficacy of the deuterated-inhibitor Example 1 to Example A in the mouse model of psoriasis. Briefly, BALB/c female mice (7-8 week age) were shaved on the dorsal skin and 62.5 mg of IMQ cream was applied daily until day 9. Simultaneously, 15 mg of IMQ cream was applied on one ear daily until day 9. Example 1 and Example A were given orally (PO) at 15 mg/kg, BID. Mice were monitored and clinical signs of psoriasis were recorded (PSI score), both on the dorsal skin (erythema, scaling & thickness) and on the IMQ-applied ear (thickness). All data is presented as mean+SEM. For comparison of more than two groups, ANOVA was used. Pearson product moment correlation was used to test for correlations. All statistical analysis was performed using GraphPad Prism™ 10.

In data set [2] the target is T1, human SPPL2a (Homo sapiens, UniProt Q8TCT8).
T1 construct: expressed in transfected cells; host or cells: U2OS (SPPL2a reporter cell line)
T1 sequence (Q8TCT8 26-520): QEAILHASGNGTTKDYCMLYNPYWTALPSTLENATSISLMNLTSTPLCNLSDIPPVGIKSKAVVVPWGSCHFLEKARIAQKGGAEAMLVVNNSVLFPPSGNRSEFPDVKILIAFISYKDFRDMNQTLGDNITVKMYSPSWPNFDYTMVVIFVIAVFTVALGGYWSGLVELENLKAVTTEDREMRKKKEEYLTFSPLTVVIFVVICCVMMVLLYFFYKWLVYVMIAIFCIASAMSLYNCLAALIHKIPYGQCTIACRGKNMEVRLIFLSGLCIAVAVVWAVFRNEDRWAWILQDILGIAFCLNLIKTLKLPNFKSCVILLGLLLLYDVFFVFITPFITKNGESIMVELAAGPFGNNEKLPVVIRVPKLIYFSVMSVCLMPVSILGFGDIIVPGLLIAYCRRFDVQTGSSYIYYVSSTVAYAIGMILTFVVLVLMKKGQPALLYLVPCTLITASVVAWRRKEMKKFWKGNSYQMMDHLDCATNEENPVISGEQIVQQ
As to the kind of experiment: Western blot assay of TNFα-GFP cleavage in U2OS cells expressing human SPPL2a. The data set is classed as cell-based. The note with it: SPPL2a-U2OS reporter cells, 24 h. The procedure: To confirm the cleavage of TNF-α in the U2OS cells that express human SPPL2a, a western blot assay was performed. The same cell line used for the imaging assays were used; these cells express human SPPL2a constitutively and an eGFP-labelled TNFα (aa 1-76) NTF substrate under a doxycycline promotor. In the presence of SPPL2a activity, TNFα-GFP is cleaved at the NTF, resulting in a single 54-56 kDa band (lower MW). If SPPL2a activity is inhibited, TNFα GFP processing is abrogated resulting in a higher molecular weight band (60-62 kDa; complete inhibition) and or both 54-56 kDa and 60-62 kDa bands (incomplete inhibition, smeared appearance) on the blot. Both Example 1 and Example A were added at indicated concentrations, and cells were incubated for 24 h with the inhibitors. Total cell lysated were prepared in ice cold-1X RIPA buffer containing protease inhibitor cocktail (AKR-190, Cell BioLabs). Lysates were collected and quantified for the total protein on NanoDrop using BCA kit (23227, Thermo Scientific). […] To detect cleaved and un-cleaved TNFα-GFP fragments, anti-GFP antibody (AF4240, R&D Biosystems) was used as a primary antibody and detected using anti-goat detection module (DM-006, ProteinSimple) according to the manufacturer's protocol. Data was analyzed using ProteinSimple compass software.

Data set [3] relates to Collagen-Induced Arthritis (CIA) mouse model. As to the kind of experiment: Collagen-induced arthritis (CIA) mouse model. The class given is in vivo, DBA-1 mice. The settings on record: 50 mg/kg dose, compared to the vehicle. From the text: Female DBA-1 mice (8-9 weeks old) were used in the CIA mouse model. This model is widely used to evaluate efficacy of immunomodulatory drugs on autoimmune diseases, such as arthritis. DBA/1 mice develop collagen-induced arthritis (CIA) after immunization with bovine type II collagen emulsified in complete Freund's adjuvant (CFA), followed by a booster dose 21 days later. Both the immunizations were given subcutaneously, approximately 25 mm from the base of the tail on opposite sides. Immunizations were performed under a short duration isoflurane anesthesia. Mice were evaluated for the disease progression up to 45 days. […] Statistical significance was determined using Two-way ANOVA with multiple comparison tests to compare all groups to the vehicle.

Data set [4] in a line: In vivo epimerization and PK, statements covering all three preclinical models. The settings on record: for retention of deuterium in the process of epimerization: all species studied; for in vivo epimerization at the chiral carbon in the 7-membered ring: rat, monkey and dog models, PO; for exposures and PK (other than epimerization) across species: rats, monkeys, dogs. Set-up: species or system Sprague Dawley rats, beagle dogs, cynomolgus monkeys. The procedure:
These factors may lead to accumulation and potenial toxicity. The effect on epimerization by substitution at the chiral carbon was tested by comparing Example A, Example 1, and Example 29 in the following preclinical in vivo pharmacokinetic models: Sprague Dawley rats, beagle dogs, and cynomolgus monkeys.
Two groups of male Sprague Dawley rats (n=3 each) received either a single 10 mg/kg PO dose of Example A or Example 1 in a vehicle consisting of 0.5% methylcellulose in water. Blood samples were collected at 0.25, 0.5, 1, 2, 4, and 6 hours postdose.
Male Sprague Dawley rats (n=3 each) received a single 3 mg/kg PO dose of Example 29 in a vehicle consisting of 5% dimethylacetamide (DMAC) in 50 mM citrate buffer w/0.5% methylcellulose. Blood samples were collected at predose, 0.25, 0.5, 1, 2, 4, 6, 8, 12, and 24 hours postdose.
Three groups of male cynomolgus monkeys (n=2 each) received either a single 3 mg/kg PO dose of Example A, Example 1, or Example 29 in a vehicle consisting of 5% dimethylacetamide (DMAC) in 50 mM citrate buffer w/0.5% methylcellulose. Blood samples were collected at predose, 0.25, 0.5, 1, 2, 3, 4, 6, 8, 12, and 24 hours postdose.
Three groups of male beagle dogs (n=2 each) received either a single 3 mg/kg PO dose of Example A, Example 1, or Example 29 in a vehicle consisting of 5% dimethylacetamide (DMAC) in 50 mM citrate buffer w/0.5% methylcellulose. Blood samples were collected at predose, 0.25, 0.5, 1, 2, 3, 4, 6, 8, 12, 24 and 48 hours postdose.
All blood samples were collected using EDTA as the anticoagulant and centrifuged to obtain plasma. Plasma concentrations of Example A, Example 1, and their respective diastereomers were determined under non-GLP conditions using standard reverse phase LC-MS/MS bioanalytical methods. The individual plasma concentration-time data was used to determine the area under the curve (AUC) values using GraphPad Prism (v9.3.1).

Data set [5] deals with T1, human SPPL2a. As to the kind of experiment: Nuclear translocation imaging assay for human SPPL2a (SPPL2a reporter U2OS cell line). The class given is cell-based. The settings on record: U2OS reporter cells, 24 h incubation. The procedure:
The nuclear translocation imaging assays for human SPPL2a were performed using an SPPL2a reporter U2OS cell line as previously described (Velcicky et al 2018, Zhang et al 2017). These cells stably express human SPPL2a and a doxycycline inducible eGFP TNFα (aa 1-76) NTF fusion protein (SPPL2a substrate). Both Example 1 and Example A were added at indicated concentrations and cells were incubated for 24 h, washed, and fixed. Nuclei were stained with DAPI. Images were acquired on a confocal fluorescence microscope system LSM-800 (Carl Zeiss). Image data was analyzed by using mid-section from Z-stack images of at least 10 individual cells per sample. All data is presented as mean+SEM. Statistical significance was calculated with the ANOVA test using GraphPad Prism™ 10.

Each structure is given as a SMILES string. Entries after “also recorded” stand apart in the source; their conditions may differ.

On to `[2H][C@@]1(NC(=O)[C@H](C)CNC(=O)c2sc(C(=O)NC)nc2C)C(=O)N2CCCN2Cc2ccccc21` [Example 1, N^2,4-Dimethyl-N^5—((R)-2-methyl-3-oxo-3-(((S)-11-oxo-2,3,10,11-tetrahydro-1H,5H-benzo[d]pyrazolo[1,2-a][1,2]diazepin-10-yl-10-d)amino)propyl)thiazole-2,5-dicarboxamide], for which, in data set [1], the “dorsal PSI scores” value was “alleviate” and the ear thickness measurements result is “alleviate”. For the same compound, the “clinical signs of psoriasis disease” value in data set [1] (compared to vehicle group) is recorded as “significantly reduced”. Moreover, in data set [1] (terminal day), the “Mouse IL-12 level in plasma” value is on record as “significant reduction” and the “Mouse TNFα level in plasma” value was “significant reduction”. Besides, in data set [2], the “TNFα-GFP cleavage inhibition (SPPL2a activity inhibition)” value was “SPPL2a activity inhibition; also recorded: Comparable and significant TNFα-GFP cleavage inhibition”. In addition, the “clinical signs of CIA” value in data set [3] is listed as “significantly reduced”. In data set [4], the “retention of deuterium in the process of epimerization” value was “retained”; the “in vivo epimerization at the chiral carbon in the 7-membered ring” value is “reduction of in vivo epimerization; also recorded: observed in all three models”; the “exposures and PK (other than epimerization) across species” value is “consistent”. In data set [5], the “inhibition of nuclear translocation of TNFα-GFP” value is “inhibited; also recorded: comparable and significant TNFα-GFP inhibition of nuclear translocation”.
Regarding `[2H]C([2H])([2H])NC(=O)c1nc(C)c(C(=O)NC[C@@H](C)C(=O)N[C@]2([2H])C(=O)N3CCCN3Cc3ccccc32)s1` [Example 29, 4-Methyl-N2-(methyl-d3)—N^5—((R)-2-methyl-3-oxo-3-(((S)-11-oxo-2,3,10,11-tetrahydro-1H,5H-benzo[d]pyrazolo[1,2-a][1,2]diazepin-10-yl-10-d)amino)propyl)thiazole-2,5-dicarboxamide], in data set [4], the “retention of deuterium in the process of epimerization” value is listed as “retained”; the “in vivo epimerization at the chiral carbon in the 7-membered ring” value is recorded as “observed in all three models”; the “exposures and PK (other than epimerization) across species” value is given as “consistent”.

These data come from US20250263416A1, “SPPL2a INHIBITORS” (Incyte Corporation, priority 2024, published 2025).
